The term IC50 denotes the concentration that inhibits the measured activity by half. Low readings indicate higher potency, high ones lower potency.

Some results are limits rather than exact numbers.

The test addresses T1, CRTH2 (Homo sapiens, UniProt Q9Y5Y4).
T1 construct: expressed in transfected cells; host or cells: CHO cells
T1 sequence (Q9Y5Y4 1-395): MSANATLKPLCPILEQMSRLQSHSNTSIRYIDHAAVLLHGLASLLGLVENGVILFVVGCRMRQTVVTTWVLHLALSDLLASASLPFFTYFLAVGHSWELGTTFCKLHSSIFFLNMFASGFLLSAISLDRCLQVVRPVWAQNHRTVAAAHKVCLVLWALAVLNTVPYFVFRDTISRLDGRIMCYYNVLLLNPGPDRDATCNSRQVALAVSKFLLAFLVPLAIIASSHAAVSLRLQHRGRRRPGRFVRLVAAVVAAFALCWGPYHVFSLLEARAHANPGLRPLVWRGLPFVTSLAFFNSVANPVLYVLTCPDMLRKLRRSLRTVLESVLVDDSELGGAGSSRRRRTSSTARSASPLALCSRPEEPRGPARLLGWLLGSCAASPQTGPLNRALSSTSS
Briefly: FRET based competitive immunoassay (cAMP) in CRTH2 expressing CHO cells. The following applies: CRTH2 expressing CHO cells incubated with forskolin and PGD2; Eu3+ cryptate-labeled anti-cAMP and d2-labeled cAMP. The test is classed as cell-based. On the procedure:
FRET Assay: To evaluate potency compounds were tested in a FRET based competitive immunoassay in which CRTH2 expressing CHO cells were incubated in the presence of forskolin and PGD2 along with Eu3+ cryptate-labeled anti-cAMP and d2-labeled cAMP.
Molecule `Cc1c(-c2nn(Cc3ccc(OC(F)(F)F)cc3)c(=O)c3ccccc23)c2ccccc2n1CC(=O)O` [Example 170, 2-(2-methyl-3-(4-oxo-3-(4-(trifluoromethoxy)benzyl)-3,4-dihydrophthalazin-1-yl)-1H-indol-1-yl)acetic acid] had an IC50 of 0.025 µM.

`Cc1c(-c2ccc(=O)n(C(C)C)n2)c2cc(F)ccc2n1CC(=O)O` [Example 334, [5-fluoro-3-(1-isopropyl-6-oxo-1,6-dihydropyridazin-3-yl)-2-methyl-1H-indol-1-yl]-acetic acid]: the IC50 amounted to 0.21 µM.

With `Cc1c(-c2ccc(=O)n(Cc3ccccc3)n2)c2cc(F)cc(F)c2n1CC(=O)O` [Example 233, 2-(3-(1-benzyl-6-oxo-1,6-dihydropyridazin-3-yl)-5,7-difluoro-2-methyl-1H-indol-1-yl)acetic acid], the 50% inhibitory concentration (IC50) turned out to be 0.147 µM.

With `Cc1c(Cc2ccc(=O)n(Cc3ccccc3)c2)c2cc(Cl)ccc2n1CC(=O)O` [Example 347, {3-[(1-benzyl-6-oxo-1,6-dihydropyridin-3-yl)methyl]-5-chloro-2-methyl-1H-indol-1-yl}acetic acid], the IC50 came to 0.011 µM.

Consider `Cc1c(-c2nn(-c3ccc(C(F)(F)F)cc3)c(=O)c3ccccc23)c2cc(F)ccc2n1CC(=O)O` [Example 206, 2-(5-fluoro-2-methyl-3-(4-oxo-3-(4-(trifluoromethyl)phenyl)-3,4-dihydrophthalazin-1-yl)-1H-indol-1-yl)acetic acid], for which the IC50 was found to be 0.32 µM.

`Cc1c(-c2cn(CC(C)(C)O)c(=O)c3c2CCCC3)c2cc(F)ccc2n1CC(=O)O` [Example 92, 2-(5-fluoro-3-(2-(2-hydroxy-2-methylpropyl)-1-oxo-1,2,5,6,7,8-hexahydro-iso-quinolin-4-yl)-2-methyl-1H-indol-1-yl)acetic acid] returned an IC50 greater than 1 µM.

For `Cc1c(Cc2ccc(=O)n(Cc3cc(F)ccc3F)n2)c2cc(F)ccc2n1CC(=O)O` [Example 336, (3-{[1-(2,5-difluorobenzyl)-6-oxo-1,6-dihydropyridazin-3-yl]methyl}-5-fluoro-2-methyl-1H-indol-1-yl)acetic acid], the half-inhibitory concentration (IC50) stood at 0.005 µM.

`Cc1c(-c2cn(Cc3ccc(F)cc3F)c(=O)c3c2CCCC3)c2cc(F)ccc2n1CC(=O)O` [Example 94, 2-(3-(2-(2,4-difluorobenzyl)-1-oxo-1,2,5,6,7,8-hexahydroisoquinolin-4-yl)-5-fluoro-2-methyl-1H-indol-1-yl)acetic acid] came in with an IC50 of 0.119 µM.

Turning to `Cc1ccc(Cn2nc(-c3c(C)n(CC(=O)O)c4ccc(Cl)cc34)ccc2=O)cc1` [Example 146, 2-(5-chloro-2-methyl-3-(1-(4-methylbenzyl)-6-oxo-1,6-dihydropyridazin-3-yl)-1H-indol-1-yl)acetic acid], the IC50 worked out at 0.074 µM.

Molecule `Cc1c(-c2ccc(=O)n(Cc3ccc(F)cc3C(F)(F)F)n2)c2cc(Cl)ccc2n1CC(=O)O` [Example 142, 2-(5-chloro-3-(1-(4-fluoro-2-(trifluoromethyl)benzyl)-6-oxo-1,6-dihydro-pyridazin-3-yl)-2-methyl-1H-indol-1-yl)acetic acid] returned an IC50 of 0.019 µM.

`Cc1c(-c2cn(Cc3ccccn3)c(=O)c3ccccc23)c2cc(F)ccc2n1CC(=O)O` [Example 95, 2-(5-fluoro-2-methyl-3-(1-oxo-2-(pyridin-2-ylmethyl)-1,2-dihydro-isoquinolin-4-yl)-1H-indol-1-yl)acetic acid] gave an IC50 of 0.009 µM.

Molecule `Cc1c(Cc2ccc(=O)n(Cc3ccccc3)c2)c2ccccc2n1CC(=O)O` [Example 348, {3-[(1-benzyl-6-oxo-1,6-dihydropyridin-3-yl)methyl]-2-methyl-1H-indol-1-yl}acetic acid] had a concentration for half-maximal inhibition (IC50) of 0.082 µM.

In turn, `Cc1c(-c2nn(CC(C)C)c(=O)c3ccccc23)c2cc(F)ccc2n1CC(=O)O` [Example 327, {5-fluoro-2-methyl-3-[3-(2-methylpropyl)-4-oxo-3,4-dihydrophthalazin-1-yl]-1H-indol-1-yl}acetic acid] yielded an IC50 of 0.013 µM.

`Cc1c(Cc2ccc(=O)n(Cc3cccnc3)n2)c2cc(F)ccc2n1CC(=O)O` [Example 195, 2-(5-fluoro-2-methyl-3-((6-oxo-1-(pyridin-3-ylmethyl)-1,6-dihydropyridazin-3-yl)methyl)-1H-indol-1-yl)acetic acid] registered an IC50 of 0.012 µM.

Consider `Cc1c(CC2=NN(CCCC(F)(F)F)C(=O)CC2)c2cc(F)ccc2n1CC(=O)O` [Example 58, 2-(5-Fluoro-2-methyl-3-((6-oxo-1-(4,4,4-trifluorobutyl)-1,4,5,6-tetrahydro-pyridazin-3-yl)methyl)-1H-indol-1-yl)acetic acid], for which the 50% inhibitory concentration (IC50) is 0.018 µM.

`Cc1c(-c2ccc(=O)n(Cc3ccc(Cl)cc3)n2)c2cc(F)ccc2n1CC(=O)O` [Example 13, 2-(3-(1-(4-Chlorobenzyl)-6-oxo-1,6-dihydropyridazin-3-yl)-5-fluoro-2-methyl-1H-indol-1-yl)acetic acid]: the concentration for half-maximal inhibition (IC50) was 0.005 µM.

With `Cc1c(-c2nn(-c3ccccc3)c(=O)c3ccccc23)c2cc(F)ccc2n1CC(=O)O` [Example 205, 2-(5-fluoro-2-methyl-3-(4-oxo-3-phenyl-3,4-dihydrophthalazin-1-yl)-1H-indol-1-yl)-acetic acid], the 50% inhibitory concentration (IC50) amounted to 0.06 µM.
